Assay results reported in ChEMBL document CHEMBL3232855, “The discovery of N-((2H-tetrazol-5-yl)methyl)-4-((R)-1-((5r,8R)-8-(tert-butyl)-3-(3,5-dichlorophenyl)-2-oxo-1,4-diazaspiro[4.5]dec-3-en-1-yl)-4,4-dimethylpentyl)benzamide (SCH 900822): a potent and selective glucagon receptor antagonist” (J Med Chem, 2014).

What was measured:
Glucagon receptor [1] = target: T1, Glucagon receptor (Homo sapiens, UniProt P47871); assay: biochemical; type: cell-based, CHO
Description: Displacement of [125I]-glucagon from recombinant human GCGR expressed in CHO cells after 60 mins by scintillation counting analysis

Glucagon receptor [2] = target: T1, Glucagon receptor; assay: Antagonist activity at human GCGR expressed in CHO cells assessed as inhibition of glucagon-stimulated cAMP production preincubated for 30 mins followed by glucagon induction measured after 45 mins by LANCE assay; type: functional, cell-based
[3] = target: Glucagon-like peptide 1 receptor (Homo sapiens, UniProt P43220); assay: Antagonist activity at human GLP-1R expressed in CHO cells assessed as inhibition of GLP-1-stimulated cAMP production preincubated for 30 mins followed by GLP-1 induction measured after 45 mins by LANCE assay; type: functional, cell-based
Glucagon receptor [4] = target: Glucagon receptor (Mus musculus, UniProt Q61606); type: cell membranes, Liver, Membrane
Sequence of Glucagon receptor (Mus musculus, UniProt Q61606) (Q61606 whole entry): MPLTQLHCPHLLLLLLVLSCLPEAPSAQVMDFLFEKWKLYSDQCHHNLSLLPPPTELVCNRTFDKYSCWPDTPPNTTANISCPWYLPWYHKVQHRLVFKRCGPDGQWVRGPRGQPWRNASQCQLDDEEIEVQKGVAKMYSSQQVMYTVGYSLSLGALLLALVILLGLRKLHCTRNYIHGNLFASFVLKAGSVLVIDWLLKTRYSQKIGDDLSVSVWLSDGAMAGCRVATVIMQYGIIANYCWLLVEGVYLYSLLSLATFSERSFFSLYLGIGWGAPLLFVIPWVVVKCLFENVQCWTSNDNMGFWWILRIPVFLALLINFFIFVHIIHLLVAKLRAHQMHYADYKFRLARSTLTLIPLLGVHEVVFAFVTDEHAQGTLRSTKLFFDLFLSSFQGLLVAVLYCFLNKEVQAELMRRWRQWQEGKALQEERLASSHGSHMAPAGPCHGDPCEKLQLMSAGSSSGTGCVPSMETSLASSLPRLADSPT
Description: Displacement of [125I]-glucagon from GCGR in mouse liver membranes after 60 mins by scintillation counting analysis

T1 sequence (P47871 whole entry): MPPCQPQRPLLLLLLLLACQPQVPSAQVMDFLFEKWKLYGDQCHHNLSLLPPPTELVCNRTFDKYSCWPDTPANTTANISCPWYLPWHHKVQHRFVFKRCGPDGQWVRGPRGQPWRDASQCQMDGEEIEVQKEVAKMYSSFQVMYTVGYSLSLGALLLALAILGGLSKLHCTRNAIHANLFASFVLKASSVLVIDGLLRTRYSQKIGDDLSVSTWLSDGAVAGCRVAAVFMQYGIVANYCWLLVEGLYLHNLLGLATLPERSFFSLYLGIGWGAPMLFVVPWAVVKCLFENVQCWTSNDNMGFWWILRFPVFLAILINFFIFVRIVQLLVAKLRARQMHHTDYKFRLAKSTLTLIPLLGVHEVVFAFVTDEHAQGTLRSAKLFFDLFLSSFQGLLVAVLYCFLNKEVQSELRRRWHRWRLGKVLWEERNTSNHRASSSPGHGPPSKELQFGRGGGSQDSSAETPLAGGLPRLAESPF
Sequence of Glucagon-like peptide 1 receptor (P43220 whole entry): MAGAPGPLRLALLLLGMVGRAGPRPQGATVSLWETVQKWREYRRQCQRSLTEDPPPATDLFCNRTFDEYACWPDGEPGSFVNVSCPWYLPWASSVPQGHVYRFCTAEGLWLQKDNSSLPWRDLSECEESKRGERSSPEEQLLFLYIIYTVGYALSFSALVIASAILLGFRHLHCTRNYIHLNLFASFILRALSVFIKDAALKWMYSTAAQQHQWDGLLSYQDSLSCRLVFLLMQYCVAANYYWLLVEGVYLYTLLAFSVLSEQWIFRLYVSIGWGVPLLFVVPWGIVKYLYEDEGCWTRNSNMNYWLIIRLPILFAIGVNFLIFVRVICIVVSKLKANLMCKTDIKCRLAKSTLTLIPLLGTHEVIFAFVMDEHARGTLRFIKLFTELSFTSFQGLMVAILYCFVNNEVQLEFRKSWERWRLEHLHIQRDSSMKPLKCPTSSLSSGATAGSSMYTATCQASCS

Row | Compound | IC50 (Glucagon receptor [1]) | IC50 (Glucagon receptor [2]) | IC50 [3] | IC50 (Glucagon receptor [4])
1 | C[C@H](c1ccc(C(=O)Nc2nnn[nH]2)cc1)N1C(=O)C(c2cc(Cl)cc(Cl)c2)=N[C@]12CC[C@@H](C(C)(C)C)CC2 | 0.47 µM | 0.75 µM | 0.8 µM | > 10 µM
2 | CC(C)(C)CC[C@H](c1ccc(C(=O)NCc2nn[nH]n2)cc1)N1C(=O)C(c2ncccc2C(F)(F)F)=N[C@]12CC[C@@H](C(C)(C)C)CC2 |  | 1.6 µM | > 10 µM | 
3 | C[C@H](c1ccc(C(=O)NC[C@@H](O)C(=O)O)cc1)N1C(=O)C(c2cc(Cl)cc(Cl)c2)=N[C@]12CC[C@@H](C(C)(C)C)CC2 | 0.19 µM | > 10 µM | > 10 µM | 1.1 µM
4 | CC(C)(C)[C@H]1CC[C@]2(CC1)N=C(c1cc(Cl)cc(Cl)c1)C(=O)N2[C@@H](c1ccc(C(=O)NCc2nn[nH]n2)cc1)C1CC1 | 0.072 µM | 0.54 µM | > 10 µM | 0.75 µM
5 | CC(C)(C)CC[C@H](c1ccc(C(=O)NCCS(=O)(=O)O)cc1)N1C(=O)C(c2cc(Cl)cc(Cl)c2)=N[C@]12CC[C@@H](C(C)(C)C)CC2 |  | 8.5 µM | > 10 µM | 
6 | C[C@@H](NC(=O)c1ccc([C@@H](CCC(C)(C)C)N2C(=O)C(c3cc(Cl)cc(Cl)c3)=N[C@]23CC[C@@H](C(C)(C)C)CC3)cc1)c1nnn[nH]1 |  | 4.5 µM | > 10 µM | 
7 | C[C@H](c1ccc(C(=O)NCCC(=O)O)cc1)N1C(=O)C(c2ccc(C(F)(F)F)cc2)=N[C@]12CC[C@@H](C(C)(C)C)CC2 | 0.17 µM | 0.91 µM | > 10 µM | 2.8 µM
8 | C[C@H](c1ccc(C(=O)NCCC(=O)O)cc1)N1C(=O)C(c2ccccc2Cl)=N[C@]12CC[C@@H](C(C)(C)C)CC2 | 0.52 µM | 2.9 µM | > 10 µM | 5.4 µM
9 | C[C@H](NC(=O)c1ccc([C@@H](CCC(C)(C)C)N2C(=O)C(c3cc(Cl)cc(Cl)c3)=N[C@]23CC[C@@H](C(C)(C)C)CC3)cc1)c1nnn[nH]1 |  | > 10 µM | > 10 µM | 
10 | CC(C)(C)CC[C@H](c1ccc(C(=O)NCc2nn[nH]n2)cc1)N1C(=O)C(c2cc(Cl)cc(Cl)c2)=NC1(C)C |  |  | > 10 µM | 
11 | CC(C)(C)CC[C@H](c1ccc(C(=O)NCCC2=NNNN2)cc1)N1C(=O)C(c2cc(Cl)cc(Cl)c2)=N[C@]12CC[C@@H](C(C)(C)C)CC2 | 0.065 µM | 0.89 µM | > 10 µM | 
12 | CC(C)(C)CC[C@H](c1ccc(C(=O)Nc2nnn[nH]2)cc1)N1C(=O)C(c2cc(Cl)cc(Cl)c2)=N[C@]12CC[C@@H](C(C)(C)C)CC2 | 0.6 µM | 0.85 µM | 0.14 µM | 
13 | C[C@H](c1ccc(C(=O)NCCC(=O)O)cc1)N1C(=O)C(c2cccc(OC(F)(F)F)c2)=N[C@]12CC[C@@H](C(C)(C)C)CC2 | 0.33 µM | 0.84 µM | 2.2 µM | 1.5 µM
14 | C[C@H](c1ccc(C(=O)NCCC(=O)O)cc1)N1C(=O)C(c2ccc(Cl)c(Cl)c2)=N[C@]12CC[C@@H](C(C)(C)C)CC2 | 0.095 µM | 0.55 µM | 4.4 µM | 3.2 µM
15 | C[C@H](c1ccc(C(=O)NCCC(=O)O)cc1)N1C(=O)C(c2ccc(OC(F)(F)F)cc2)=N[C@]12CC[C@@H](C(C)(C)C)CC2 | 0.067 µM | 1.1 µM | > 10 µM | 8 µM
16 | CC(C)[C@H](c1ccc(C(=O)NCc2nn[nH]n2)cc1)N1C(=O)C(c2cc(Cl)cc(Cl)c2)=N[C@]12CC[C@@H](C(C)(C)C)CC2 |  | 2.2 µM |  | 
17 | CC(C)(C)CC[C@H](c1ccc(C(=O)NCc2nn[nH]n2)cc1)N1C(=O)C(c2cnccc2C(F)(F)F)=N[C@]12CC[C@@H](C(C)(C)C)CC2 | 0.022 µM | 1.2 µM | > 10 µM | 0.096 µM
18 | C[C@H](c1ccc(C(=O)NCCC(=O)O)cc1)N1C(=O)C(c2cccc(Cl)c2F)=N[C@]12CC[C@@H](C(C)(C)C)CC2 | 0.62 µM | 0.63 µM | > 10 µM | 4 µM
19 | C[C@@H](c1ccc(C(=O)NCCC(=O)O)cc1)N1C(=O)C(c2cc(Cl)cc(Cl)c2)=N[C@]12CC[C@@H](C(C)(C)C)CC2 |  | 5.1 µM | > 10 µM | 
20 | CC(C)(C)CC[C@H](c1ccc(C(=O)NCC(=O)O)cc1)N1C(=O)C(c2cc(Cl)cc(Cl)c2)=N[C@]12CC[C@@H](C(C)(C)C)CC2 |  | 2.7 µM | > 10 µM | 
21 | C[C@@H](CC(=O)O)NC(=O)c1ccc([C@@H](CCC(C)(C)C)N2C(=O)C(c3cc(Cl)cc(Cl)c3)=N[C@]23CC[C@@H](C(C)(C)C)CC3)cc1 |  | > 10 µM | > 10 µM | 

More lines, now with the values ahead:

Row | IC50 (Glucagon receptor [1]) | IC50 (Glucagon receptor [2]) | IC50 [3] | IC50 (Glucagon receptor [4]) | Compound
22 | 0.044 µM | 0.066 µM | > 10 µM |  | CC[C@H]1CC[C@]2(CC1)N=C(c1cc(Cl)cc(Cl)c1)C(=O)N2[C@H](CCC(C)(C)C)c1ccc(C(=O)NCc2nn[nH]n2)cc1
23 | 0.89 µM | 0.26 µM | 7.3 µM | 3.3 µM | CC(CN1C(=O)C(c2cc(Cl)cc(Cl)c2)=N[C@]12CC[C@@H](C(C)(C)C)CC2)c1ccc(C(=O)NCCC(=O)O)cc1 (stereo partly specified)
24 | 0.19 µM | 0.14 µM | 3.1 µM | 1.3 µM | CC(Cc1ccc(C(=O)NCCC(=O)O)cc1)N1C(=O)C(c2cc(Cl)cc(Cl)c2)=N[C@]12CC[C@@H](C(C)(C)C)CC2 (stereo partly specified)
25 | 0.17 µM | 0.17 µM | > 10 µM | 1.5 µM | CC(C)(C)[C@H]1CC[C@]2(CC1)N=C(c1cc(Cl)cc(Cl)c1)C(=O)N2CCc1ccc(C(=O)NCCC(=O)O)cc1
26 | 0.014 µM | 0.13 µM | > 10 µM | 0.13 µM | CC(C)(C)CC[C@H](c1ccc(C(=O)NCc2nn[nH]n2)cc1)N1C(=O)C(c2cccc(Cl)c2)=N[C@]12CC[C@@H](C(C)(C)C)CC2
27 | 0.021 µM | 0.14 µM | > 10 µM | 0.1 µM | CC(C)(C)CC[C@H](c1ccc(C(=O)NCc2nn[nH]n2)cc1)N1C(=O)C(c2cccc(F)c2)=N[C@]12CC[C@@H](C(C)(C)C)CC2
28 | 0.12 µM | 0.53 µM | > 10 µM | 6.1 µM | C[C@H](CC(=O)O)NC(=O)c1ccc([C@@H](CCC(C)(C)C)N2C(=O)C(c3cc(Cl)cc(Cl)c3)=N[C@]23CC[C@@H](C(C)(C)C)CC3)cc1
29 | 0.013 µM | 0.24 µM | > 10 µM | 0.09 µM | CC(C)(C)CC[C@H](c1ccc(C(=O)NCc2nn[nH]n2)cc1)N1C(=O)C(c2ccc(F)cc2)=N[C@]12CC[C@@H](C(C)(C)C)CC2
30 | 0.038 µM | 0.48 µM | > 10 µM | 0.084 µM | CC(C)(C)CC[C@H](c1ccc(C(=O)NCc2nn[nH]n2)cc1)N1C(=O)C(c2cncc(Cl)c2)=N[C@]12CC[C@@H](C(C)(C)C)CC2
31 | 0.004 µM | 0.37 µM | > 10 µM | 0.11 µM | CC(C)(C)[C@H]1CC[C@]2(CC1)N=C(c1cc(Cl)cc(Cl)c1)C(=O)N2[C@H](CCC(F)(F)F)c1ccc(C(=O)NCc2nn[nH]n2)cc1
32 | 0.013 µM | 0.18 µM | > 10 µM | 0.17 µM | CC(C)(C)CC[C@H](c1ccc(C(=O)NCc2nn[nH]n2)cc1)N1C(=O)C(c2ccc(F)c(F)c2)=N[C@]12CC[C@@H](C(C)(C)C)CC2
33 | 0.013 µM | 0.18 µM | > 10 µM | 0.14 µM | CC(C)(C)CC[C@H](c1ccc(C(=O)NCc2nn[nH]n2)cc1)N1C(=O)C(c2cccc(C(F)(F)F)c2)=N[C@]12CC[C@@H](C(C)(C)C)CC2
34 | 0.086 µM | 0.37 µM | > 10 µM |  | CC(C)(C)CC[C@H](c1ccc(C(=O)NC[C@H](O)C(=O)O)cc1)N1C(=O)C(c2cc(Cl)cc(Cl)c2)=N[C@]12CC[C@@H](C(C)(C)C)CC2
35 | 0.082 µM | 0.27 µM | > 10 µM | 0.37 µM | CC[C@H](c1ccc(C(=O)NCc2nn[nH]n2)cc1)N1C(=O)C(c2cc(Cl)cc(Cl)c2)=N[C@]12CC[C@@H](C(C)(C)C)CC2
36 | 1.1 µM | 0.35 µM | > 10 µM | > 10 µM | C[C@H](c1ccc(C(=O)NCCC(=O)O)cc1)N1C(=O)C(c2ccccc2F)=N[C@]12CC[C@@H](C(C)(C)C)CC2
37 | 0.022 µM | 0.15 µM | > 10 µM | 0.28 µM | CC(C)CC[C@H](c1ccc(C(=O)NCc2nn[nH]n2)cc1)N1C(=O)C(c2cc(Cl)cc(Cl)c2)=N[C@]12CC[C@@H](C(C)(C)C)CC2
38 | 0.055 µM | 0.22 µM | > 10 µM | 0.5 µM | CCC[C@H](c1ccc(C(=O)NCc2nn[nH]n2)cc1)N1C(=O)C(c2cc(Cl)cc(Cl)c2)=N[C@]12CC[C@@H](C(C)(C)C)CC2
39 | 0.036 µM | 0.26 µM | > 10 µM |  | CC(C)(C)CC[C@H](c1ccc(C(=O)NCc2nn[nH]n2)cc1)N1C(=O)C(c2cc(Cl)cc(Cl)c2)=N[C@]12CC[C@@H](C)CC2
40 | 0.026 µM | 0.36 µM | > 10 µM |  | COc1ccc(C2=N[C@]3(CC[C@@H](C(C)(C)C)CC3)N([C@H](CCC(C)(C)C)c3ccc(C(=O)NCc4nn[nH]n4)cc3)C2=O)cc1
41 | 0.015 µM | 0.23 µM | > 10 µM |  | COc1cccc(C2=N[C@]3(CC[C@@H](C(C)(C)C)CC3)N([C@H](CCC(C)(C)C)c3ccc(C(=O)NCc4nn[nH]n4)cc3)C2=O)c1
42 | 0.149 µM | 0.4 µM | > 10 µM |  | CC(C)(C)CC[C@H](c1ccc(C(=O)NC[C@@H](O)C(=O)O)cc1)N1C(=O)C(c2cc(Cl)cc(Cl)c2)=N[C@]12CC[C@@H](C(C)(C)C)CC2 (mixture of isomers)
43 | 0.27 µM | 0.35 µM | > 10 µM |  | CC(C)(C)CC[C@H](c1ccc(C(=O)NCCCC(=O)O)cc1)N1C(=O)C(c2cc(Cl)cc(Cl)c2)=N[C@]12CC[C@@H](C(C)(C)C)CC2
44 | 0.195 µM | 0.51 µM | > 10 µM |  | CC(C)(C)CC[C@H](c1ccc(C(=O)NCc2nn[nH]n2)cc1)N1C(=O)C(c2cc(Cl)cc(Cl)c2)=NC12CCCCC2
